Data set [1] in a line: equilibrium aqueous solubility by HPLC. Format: physicochemical. The settings on record: thermodynamic from solid; water, measured by HPLC; read-out: equilibrium solubility in water. How it is done:
The aqueous solubilities of salts were measured by an equilibrium method in which an amount of the salt was weighed into a 2 ml vial equipped with a magnetic stirrer bar and water added. In cases where complete dissolution was observed, more material was added until the sample was exhausted. The slurry was then stirred for seven days before isolating the solids by centrifuge-filtration. The solids were analysed by XRPD and the filtrates were analysed by HPLC to determine the amount of (+)-alpha-dihydrotetrabenazine salt in solution. The solubilities were calculated against a calibration curve established for a (+)-alpha-dihydrotetrabenazine sample of known concentration.

Another data set has as its target T1, VMAT2 (Homo sapiens, UniProt Q05940).
T1 construct: from tissue; host or cells: living human volunteers (in vivo PET scan)
In words: % VMAT2 blocking by PET scan in human volunteers. Format: in vivo. An excerpt: Complete blocking of the VMAT2 proteins is considered undesirable as this can lead to unwanted side effects, such as Parkinsonism. […] The levels of VMAT2 blocking can be determined by competitive binding studies using Positron Emission Tomography (PET). By co-administering a radioactive ligand with the compound of interest at various concentrations, the proportion of binding sites occupied can be determined (see for example, Matthews et al., “Positron emission tomography molecular imaging for drug development”, Br. J. Clin. Pharmacol., 73:2, 175-186).
In four of the volunteers, blood sample were taken at 30, 60, 120 and 180 minutes after drug administration. Blood samples were not taken from the fifth volunteer. At 60 minutes after drug administration, PET scans were initiated and these were stopped at 120 minutes after drug administration.
The experiment was carried out at dosages of 7.5 mg, 15 mg and 22.5 mg.

The test system of data set [2] is non-amphetamine induced rats. In words: locomotor activity in rats without amphetamine induction, open field test. As to conditions: Study 3, non-induced rats, 2.5 mg/kg or 5 mg/kg. Format: in vivo, rat. Here is the method: All animal experiments were carried out according to the National Institute of Health (NIH) guidelines for the care and use of laboratory animals, and approved by the National Animal Experiment Board, Finland. Male CD (Charles River Laboratories, Germany) at weight range of 200-250 g (165-200 g upon arrival) were used for the experiments. Animals were housed at a standard temperature (22±1° C.) and in a light-controlled environment (lights on from 7 am to 8 pm) with ad libitum access to food and water.
Locomotor activity of the rats was tested in open field arena. The open field test was performed during the rat light cycle and under a normal lighting evenly distributed to the test chambers. The paths of the rats were recorded by activity monitor (Med. Associates Inc.).
Dosing the vehicle, vehicle-amphetamine, (+)-α-DHTBZ or risperidone was done prior to LMA test. The rats were placed in the centre of the arena, and the path was recorded for 60 minutes.
Animals were grouped as follows: • Group 1: 10 rats treated with Vehicle • Group 2: 10 rats treated with (+)-α-DHTBZ 2.5 mg/kg • Group 3: 10 rats treated with (+)-α-DHTBZ 5 mg/kg • Group 4: 10 rats treated with risperidone 1 mg/kg

Data set [3] in a line: pharmacokinetics after oral administration to male Beagle dogs. Format: in vivo, Beagle dog. Here is the method: Doses were administered orally, via gavage, at a dose volume of 2.00 mL/kg yielding the target dose level of 1.50 mg/kg. Following dosing, 10 mL of tap water was flushed down the gavage to ensure the entire dose was dispensed. Following dosing over four sessions each with one of the test materials, serial whole blood samples (circa. 1.3 mL) were collected from a jugular vein then placed into K2 EDTA treated tubes pre-dose and then 0.25, 0.50, 1, 2, 3, 4, 6, 12 and 24 hours post dose. Blood samples were placed immediately on a cool-block before being centrifuged within 15 minutes at 3,000×g, 10 minutes, 4° C. and resultant plasma drawn off. […] Doses were administered orally, via gavage, at a dose volume of 2.00 mL/kg yielding the target dose level of 1.50 mg/kg. Following dosing, 10 mL of tap water was flushed down the gavage to ensure the entire dose was dispensed. Following dosing over four sessions each with one of the test materials, serial whole blood samples (circa. 1.3 mL) were collected from a jugular vein then placed into K2 EDTA treated tubes pre-dose and then 0.25, 0.50, 1, 2, 3, 4, 6, 12 and 24 hours post dose. Blood samples were placed immediately on a cool-block before being centrifuged within 15 minutes at 3,000×g, 10 minutes, 4° C. and resultant plasma drawn off.

[4] abbreviates: male Beagle dogs, oral 1.50 mg/kg (freebase equivalent).

≈ marks a conversion by molar mass, not a printed value.

T1 sequence (Q05940 whole entry): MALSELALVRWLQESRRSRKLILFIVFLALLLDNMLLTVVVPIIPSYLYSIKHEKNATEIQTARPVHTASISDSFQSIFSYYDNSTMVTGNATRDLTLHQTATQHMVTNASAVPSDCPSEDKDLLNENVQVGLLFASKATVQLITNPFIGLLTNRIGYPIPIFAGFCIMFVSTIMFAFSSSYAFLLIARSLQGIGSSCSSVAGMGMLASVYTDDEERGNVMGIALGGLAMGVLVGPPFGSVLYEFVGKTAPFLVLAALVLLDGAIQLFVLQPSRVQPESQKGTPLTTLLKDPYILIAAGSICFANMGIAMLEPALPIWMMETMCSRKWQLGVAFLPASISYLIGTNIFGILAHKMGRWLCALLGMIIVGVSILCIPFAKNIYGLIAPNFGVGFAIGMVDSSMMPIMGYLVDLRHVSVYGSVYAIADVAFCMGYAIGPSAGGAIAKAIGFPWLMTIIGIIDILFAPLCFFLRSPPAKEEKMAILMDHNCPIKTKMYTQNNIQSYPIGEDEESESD

As usually defined, the Cmax is the highest concentration seen after dosing. Regarding `COc1cc2c(cc1OC)[C@H]1C[C@@H](O)[C@H](CC(C)C)CN1CC2` [(+)-α-dihydrotetrabenazine, (2R,3R,11bR)-3-isobutyl-9,10-dimethoxy-1,3,4,6,7,11b-hexahydro-2H-pyrido[2,1,a]isoquinolin-2-01], in data set [1], the solubility thermodynamic at 7 days stood at 127 µg/mL (≈ 398 µM). The “% VMAT2 blocking” value on VMAT2 (heavier individuals, doses as low as 7.5 mg) is “at least 50%”; on VMAT2 (subject 1 (112 kg), 7.5 mg oral, PET 60-120 minutes after administration), 54%; on VMAT2 (subject 1 (112 kg), 15 mg oral, PET 60-120 minutes after administration) it was 73%; on VMAT2 (subject 1 (112 kg), 22.5 mg oral, PET 60-120 minutes after administration), 75%; on VMAT2 (subject 2 (76 kg), 7.5 mg oral, PET 60-120 minutes after administration) it was 73%; on VMAT2 (subject 2 (76 kg), 15 mg oral, PET 60-120 minutes after administration), 83%. In addition, the “% VMAT2 blocking” value at VMAT2 (subject 2 (76 kg), 22.5 mg oral, PET 60-120 minutes after administration) was determined as 82%; at VMAT2 (subject 3 (129 kg), 7.5 mg oral, PET 60-120 minutes after administration), 62%; at VMAT2 (subject 3 (129 kg), 15 mg oral, PET 60-120 minutes after administration), 69%; on VMAT2 (subject 3 (129 kg), 22.5 mg oral, PET 60-120 minutes after administration), 74%; on VMAT2 (subject 4 (59 kg), 7.5 mg oral, PET 60-120 minutes after administration) it was 84%; on VMAT2 (subject 4 (59 kg), 15 mg oral, PET 60-120 minutes after administration) it was 89%. Also, the “% VMAT2 blocking” value at VMAT2 (subject 5 (91 kg), 7.5 mg oral, PET 60-120 minutes after administration) was 73%; at VMAT2 (subject 5 (91 kg), 15 mg oral, PET 60-120 minutes after administration) it was 79%; on VMAT2 (subject 5 (91 kg), 22.5 mg oral, PET 60-120 minutes after administration), 82%. Further, the “stereotypic behaviour versus vehicle” value in data set [2] is given as “comparable”. In addition, the “total movement versus vehicle” value in data set [2] is recorded as “comparable”. For the same molecule, the Cmax in data set [3] (dog, plasma, 1.5 mg/kg, male Beagle dogs, oral 1.50 mg/kg (freebase equivalent)) is 58.7 ng/mL. Besides, in data set [3] (setting [4]), the mean exposure was 64.26 ng·mL·h. In addition, the “time post dose at which Cmax was observed” value in data set [3] (setting [4]) stood at 0.25 h. For the same molecule, the concentration at 6 h in data set [3] (male, Beagle (HsdRcc:DOBE), dog, plasma, po, 1.5 mg/kg, Plasma concentration of (+)-α-dihydrotetrabenazine, Male 2, oral 1.50 mg/kg (freebase equivalent), 6 h, BLQ = <0.10 ng/mL) is 0.113 ng/mL.

Source of the values: US11844794B2, “Pharmaceutical compositions” (ADEPTIO PHARMACEUTICALS LIMITED, priority 2017, dated 2023).
